From patent US7903239B2, “Porous photonic crystal with light scattering domains and methods of synthesis and use thereof” (priority 2004, dated 2011)

Legend:
primary rat hepatocytes [1] = assay: Light scattering from hepatocytes seeded on a porous Si photonic crystal (CCD spectrometer, in incubator); assay type: cell-based; conditions: 50 μM Cd^2+
Method: Hepatocytes were isolated from 2-3 month old adult female Lewis rats by collagenase perfusion as previously described. Hepatocytes were then seeded on the polystyrene-coated porous silicon samples or on tissue-culture polystyrene dishes.
Hepatocytes were then seeded on the activated polystyrene-coated chip.
Cell seeding. Porous Si photonic crystal samples were sterilized in a 35 mm dish with 2 mL of 100% ethanol for 1 hour. Ethanol was removed and the samples were allowed to dry in a sterile laminar-flow hood. The samples and dish were washed twice with sterile water. To improve adhesion, 2 mL of a 0.1 mg/mL solution of rat-tail collagen (collagen I) was added to the dish, and the samples were incubated at 37° C. for one h. The collagen-coated samples were then washed once with sterile water, and once with growth media. Media for all experiments was DMEM with high glucose (Invitrogen), 10% fetal bovine serum, supplemented with 0.5 U/mL insulin, 7 ng/mL glucagon, 7.5 mg/mL hydrocortisone, 10 U/mL penicillin, and 10 mg/mL streptomycin. Hepatocytes were isolated from 2-3 month old adult female Lewis rats by collagenase perfusion as previously described. Less than one hour after isolation, 1.25×10^6 cells per dish were seeded in 2 mL of media for scattering experiments and 6×10^5 cells per dish for microscope experiments. As the porous Si samples were smaller than the dish, some cells settled and attached to the polystyrene surface. Unattached cells were removed after one hour and dishes were incubated at 37° C., 5% CO2 for 24 hours to allow spreading before the start of observation.
Reflectance spectra were collected using an Ocean Optics S-2000 CCD spectrometer fitted with a microscope objective lens coupled to either a bifurcated fiber optic cable (for specular measurements) or a single fiber optic cable (for scattering measurements). […]

rat hepatocyte cells = assay: MTT cell viability assay; assay type: cell-based; conditions: 50 μM Cd^2+, after ~10 h
hepatocytes [2] = assay: Reflectance microscopy of non-incubated hepatocytes on porous Si photonic crystal; assay type: cell-based, rat; conditions: 200 μM Cd^2+, eighty-five min after introduction, cells not incubated
Method: More particularly, measurement of light scattered from a monolayer of hepatocyte cells on a porous Si photonic crystal is used to measure changes in cellular morphology. Data were collected after hepatocytes were administered a toxic dose of aqueous cadmium chloride (200 μM). […] Upon exposure to Cd^2+, characteristic changes in morphology that accompany loss of viability, such as blebbing and increased granularity, are observed (FIG. 9b). The optical setup produces more dramatic images upon exposure to a toxic dose of Cd^2+. In this arrangement, cells appear with a color characteristic of the underlying photonic crystal, while the regions that are not covered with cells appear darker (FIG. 5a). After loss of viability, the cytoplasm appears brighter, leading to greater nuclear and cell boundary contrast (FIG. 5b).
Optical measurements. […] Images were processed on Metamorph and JImage. […] Pictures were obtained at time 0 and 85 minutes.

primary rat hepatocytes [3] = assay: Phase-contrast microscopy of hepatocytes on tissue-culture polystyrene plates; conditions: 50 μM Cd^2+
Method: Optical measurements. Images for cells seeded on porous silicon photonic crystals were collected using a reflectance microscope and a 10× LWD objective with on-normal and off-normal illumination using a white light source. Phase contrast images for cells seeded on tissue cultured polystyrene multi-well plates were obtained on a Nikon TE200 microscope with a 10× objective and captured with a camera. Images were processed on Metamorph and JImage. […] Cells were seeded on the porous Si chips at less than 100% coverage so that the porous silicon background could provide contrast. In order to follow the same subset of cells throughout the course of morphology changes for the Cd^2+ toxicity studies, the cells were not incubated while monitoring with the microscope. Rather, cells were placed on a chip and Cd^2+ concentration was adjusted to a final concentration of 200 μM. Pictures were obtained at time 0 and 85 minutes.

hepatocytes [4] = conditions: Cd^2+ in the 50-400 μM range; cited from earlier work

[Cl][Cd][Cl] [Cd^2+, cadmium chloride]
time after which intensity of scattered light reaches a constant value (primary rat hepatocytes [1]): ~10 h
time after which relative scattered intensity shows a significant increase (primary rat hepatocytes [1]): ~2 h
time by which scattering changes precede first loss of viability in MTT stain (primary rat hepatocytes [1]): ~2 h
viability according to MTT stain, % of the initial value (rat hepatocyte cells): ~50%
hepatocytes that have lost viability (hepatocytes [2]): > 90%
hepatocyte morphology by phase contrast (primary rat hepatocytes [3]): granular appearance increases substantially, even after 2 h
time by which most cellular features become indistinguishable (primary rat hepatocytes [3]): ≤ 14 h
time of cell damage (decrease in membrane and metabolic integrity) (hepatocytes [4]): within the first hour of exposure
